Assay in all cases: Kinase selectivity, P33-radiolabeled assay
Type in all cases: biochemical
Holding throughout (conditions): 10 μM ATP

In one assay the target is T1, AXL (Homo sapiens, UniProt P30530).
T1 construct: purchased Reaction Biology Corp
T1 sequence (P30530 26-894): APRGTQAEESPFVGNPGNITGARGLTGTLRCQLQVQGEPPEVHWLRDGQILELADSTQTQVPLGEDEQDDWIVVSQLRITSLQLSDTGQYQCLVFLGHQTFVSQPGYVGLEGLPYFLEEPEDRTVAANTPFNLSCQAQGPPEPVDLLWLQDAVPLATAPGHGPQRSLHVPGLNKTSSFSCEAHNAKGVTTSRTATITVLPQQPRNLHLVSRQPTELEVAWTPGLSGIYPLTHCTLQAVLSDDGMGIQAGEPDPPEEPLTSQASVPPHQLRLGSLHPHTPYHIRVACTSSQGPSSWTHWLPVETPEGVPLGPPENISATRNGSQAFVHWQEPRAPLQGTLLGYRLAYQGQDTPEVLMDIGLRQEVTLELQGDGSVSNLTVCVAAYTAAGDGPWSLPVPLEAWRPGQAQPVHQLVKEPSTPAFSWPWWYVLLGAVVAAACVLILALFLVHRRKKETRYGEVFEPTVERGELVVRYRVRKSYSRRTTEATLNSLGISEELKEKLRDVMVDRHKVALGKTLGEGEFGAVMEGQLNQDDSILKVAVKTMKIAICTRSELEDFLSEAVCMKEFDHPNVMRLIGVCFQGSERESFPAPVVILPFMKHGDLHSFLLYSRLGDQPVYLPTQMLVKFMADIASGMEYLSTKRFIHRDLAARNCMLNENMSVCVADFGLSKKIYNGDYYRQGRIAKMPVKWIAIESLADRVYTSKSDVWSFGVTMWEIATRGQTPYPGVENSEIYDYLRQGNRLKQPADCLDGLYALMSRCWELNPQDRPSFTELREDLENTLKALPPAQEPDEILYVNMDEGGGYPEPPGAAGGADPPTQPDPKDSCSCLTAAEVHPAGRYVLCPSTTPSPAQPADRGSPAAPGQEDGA
The essentials:
(§1)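 ATP at 10 μM; test article at 10 μM, single point, two replicates. Output is activity as % of DMSO.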

A further assay addresses T2, CDK5/p35 (Homo sapiens, UniProt Q00535).
T2 construct: purchased Reaction Biology Corp
The essentials: as §1

The target of another assay is T3, FYN (Homo sapiens, UniProt P06241).
T3 construct: purchased Reaction Biology Corp
T3 sequence (P06241 whole entry): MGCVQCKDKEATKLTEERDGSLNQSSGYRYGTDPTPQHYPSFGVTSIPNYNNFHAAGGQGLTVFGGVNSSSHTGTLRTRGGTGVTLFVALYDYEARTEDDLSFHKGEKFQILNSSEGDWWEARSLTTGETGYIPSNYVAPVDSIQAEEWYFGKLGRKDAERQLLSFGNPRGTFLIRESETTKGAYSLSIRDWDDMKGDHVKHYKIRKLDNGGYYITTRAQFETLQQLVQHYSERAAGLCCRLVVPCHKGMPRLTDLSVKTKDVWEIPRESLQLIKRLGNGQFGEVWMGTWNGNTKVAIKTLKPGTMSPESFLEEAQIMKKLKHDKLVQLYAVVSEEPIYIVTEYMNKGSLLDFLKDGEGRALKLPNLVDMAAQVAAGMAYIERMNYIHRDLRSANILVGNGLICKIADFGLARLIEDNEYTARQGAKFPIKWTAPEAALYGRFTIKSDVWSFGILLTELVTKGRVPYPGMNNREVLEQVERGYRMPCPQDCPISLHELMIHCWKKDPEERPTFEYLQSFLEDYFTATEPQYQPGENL
The gist of the method: as §1

The target in the next assay is T4, NEK4 (Homo sapiens, UniProt P51957).
T4 construct: purchased Reaction Biology Corp
T4 sequence (P51957 whole entry): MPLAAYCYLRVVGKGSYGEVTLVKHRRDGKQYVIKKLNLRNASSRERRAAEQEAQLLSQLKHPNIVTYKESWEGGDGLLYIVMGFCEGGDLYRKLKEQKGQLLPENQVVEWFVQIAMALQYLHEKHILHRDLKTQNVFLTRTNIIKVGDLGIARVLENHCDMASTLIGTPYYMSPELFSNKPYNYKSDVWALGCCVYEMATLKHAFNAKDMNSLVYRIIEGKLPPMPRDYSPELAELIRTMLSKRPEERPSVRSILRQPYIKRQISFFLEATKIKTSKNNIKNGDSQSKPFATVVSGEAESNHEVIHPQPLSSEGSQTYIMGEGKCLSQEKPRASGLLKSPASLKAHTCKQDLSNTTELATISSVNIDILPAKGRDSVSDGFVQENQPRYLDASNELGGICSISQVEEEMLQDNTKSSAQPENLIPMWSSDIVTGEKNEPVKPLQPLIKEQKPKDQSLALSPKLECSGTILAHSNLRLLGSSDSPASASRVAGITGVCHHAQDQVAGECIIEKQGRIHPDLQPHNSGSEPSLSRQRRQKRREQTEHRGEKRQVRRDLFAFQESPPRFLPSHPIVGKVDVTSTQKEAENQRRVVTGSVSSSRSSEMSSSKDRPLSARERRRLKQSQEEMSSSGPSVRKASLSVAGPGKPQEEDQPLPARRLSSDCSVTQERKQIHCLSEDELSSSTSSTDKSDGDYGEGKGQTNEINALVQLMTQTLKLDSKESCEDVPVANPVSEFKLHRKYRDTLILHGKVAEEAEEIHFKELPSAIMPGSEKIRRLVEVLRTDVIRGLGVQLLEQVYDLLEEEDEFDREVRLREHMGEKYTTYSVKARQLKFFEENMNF
The gist of the method:
as §1

A further assay has as its target T5, SYK (Homo sapiens, UniProt P43405).
T5 construct: purchased Reaction Biology Corp
The gist of the method:
as §1

Another assay has as its target T6, TYRO3/SKY (Homo sapiens, UniProt Q06418).
T6 construct: purchased Reaction Biology Corp
T6 sequence (Q06418 41-890): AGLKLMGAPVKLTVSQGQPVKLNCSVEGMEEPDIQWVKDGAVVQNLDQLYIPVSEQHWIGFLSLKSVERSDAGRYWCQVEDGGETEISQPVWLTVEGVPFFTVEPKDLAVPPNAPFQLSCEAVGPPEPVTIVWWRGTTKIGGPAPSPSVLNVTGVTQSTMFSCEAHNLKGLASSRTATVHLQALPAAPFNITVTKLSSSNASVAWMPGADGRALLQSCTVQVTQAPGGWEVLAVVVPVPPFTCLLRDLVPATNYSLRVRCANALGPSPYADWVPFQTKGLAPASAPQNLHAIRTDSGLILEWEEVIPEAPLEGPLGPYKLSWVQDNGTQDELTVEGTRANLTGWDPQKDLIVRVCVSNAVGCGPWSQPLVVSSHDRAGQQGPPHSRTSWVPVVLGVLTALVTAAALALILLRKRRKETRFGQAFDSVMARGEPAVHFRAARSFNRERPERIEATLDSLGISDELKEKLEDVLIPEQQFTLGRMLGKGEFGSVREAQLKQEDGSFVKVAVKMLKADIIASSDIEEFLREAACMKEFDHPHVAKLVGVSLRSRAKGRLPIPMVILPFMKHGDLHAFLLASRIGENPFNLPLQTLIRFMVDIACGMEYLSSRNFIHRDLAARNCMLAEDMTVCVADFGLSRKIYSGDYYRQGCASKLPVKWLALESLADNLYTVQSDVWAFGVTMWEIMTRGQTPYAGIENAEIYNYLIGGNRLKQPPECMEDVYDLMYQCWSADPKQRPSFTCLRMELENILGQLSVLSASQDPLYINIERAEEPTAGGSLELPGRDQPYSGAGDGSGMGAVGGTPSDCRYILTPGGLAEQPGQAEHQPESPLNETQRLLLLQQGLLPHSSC
The essentials:
as §1

The mark [1] stands for this setting: read-out: % Enzyme Activity (relative to DMSO controls) AVG.
The mark [2] stands for this setting: read-out: % Enzyme Activity (relative to DMSO controls) Data 1.
[3] abbreviates: read-out: % Enzyme Activity (relative to DMSO controls) Data 2.

Read-outs that look alike come from different tables or passages of the source.

T2 sequence (Q00535 whole entry): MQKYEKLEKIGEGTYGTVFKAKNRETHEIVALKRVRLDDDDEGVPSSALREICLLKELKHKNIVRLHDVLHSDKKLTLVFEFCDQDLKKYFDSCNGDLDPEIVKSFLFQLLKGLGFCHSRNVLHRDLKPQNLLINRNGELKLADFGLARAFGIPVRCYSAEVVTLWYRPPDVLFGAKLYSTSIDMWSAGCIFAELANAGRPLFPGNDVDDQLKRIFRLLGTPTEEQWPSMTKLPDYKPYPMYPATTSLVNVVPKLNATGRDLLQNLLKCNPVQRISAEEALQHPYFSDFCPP
T2 sequence (Q15078 whole entry partner): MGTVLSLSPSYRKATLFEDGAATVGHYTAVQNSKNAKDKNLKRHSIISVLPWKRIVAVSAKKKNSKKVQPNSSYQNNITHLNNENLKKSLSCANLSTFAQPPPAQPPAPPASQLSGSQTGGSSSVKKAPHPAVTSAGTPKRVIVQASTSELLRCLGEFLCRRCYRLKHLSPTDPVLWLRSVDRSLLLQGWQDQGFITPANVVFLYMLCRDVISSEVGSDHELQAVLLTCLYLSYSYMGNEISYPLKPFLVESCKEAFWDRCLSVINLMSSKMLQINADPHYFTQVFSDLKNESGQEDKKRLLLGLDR

Take `CC(C)(C)C(=O)N1N=CC[C@H]1c1ccccc1` [GSK′963]: the remaining activity at 10 µM on AXL (setting [1]) was 92.9%; at AXL (setting [2]), 91.2%; at AXL (setting [3]), 94.6%; at CDK5/p35 (setting [1]), 96.2%; on CDK5/p35 (setting [2]), 95.5%; on CDK5/p35 (setting [3]), 97%. Besides, the remaining activity at 10 µM stood at 106% at FYN (setting [1]); 104% at FYN (setting [2]); 107% at FYN (setting [3]); 102% at NEK4 (setting [1]); 102% on NEK4 (setting [2]); 102% on NEK4 (setting [3]). Also, the remaining activity at 10 µM at SYK (setting [1]) was found to be 102%; at SYK (setting [2]) it was 106%; at SYK (setting [3]), 97.6%; at TYRO3/SKY (setting [1]) it was 97.2%; on TYRO3/SKY (setting [2]), 97.1%; on TYRO3/SKY (setting [3]), 97.3%.

The record behind these values is PMC4979471 (Cell Death Discovery, 2015).
